Laboratory results from patent publication US11053207B2, “Indoleamine-2,3-dioxygenase inhibitor and preparation method therefor” (SHANGHAI INSTITUTE OF ORGANIC CHEMISTRY, CHINESE ACADEMY OF …, priority 2014, dated 2021).
Values joined by “and” are separate entries in the source; they are usually repeats but may differ in a detail not shown here. Equal values may be shown once. Read-outs that look alike come from different tables or passages of the source.

Legend:
[1] = Pharmacokinetics of compound 6 in ICR mice after oral compound 13 (prodrug); format: in vivo; conditions: for AUMC0-inf / AUMC0-t / Kel / MRTPO: compound 6 in ICR mice after oral compound 13 30 mg/kg
Protocol: Compound 13 was orally administered to ICR mice. Blood samples were collected at different time points. LC-MS/MS was used to determine the concentration of compound 6 in the plasma of mice after administration of the test substance, and the relevant pharmacokinetic parameters were calculated, the pharmacological properties of compound 6 in mice was investigated.
Experimental design: 3 ICR mice, provided by Suzhou Zhaoyan New Drug Research and Development Co., Ltd.; the experiment was carried out according to Table 6.
Each animal was anesthetized with isoflurane and thereafter about 25 μL of blood was collected through the eyepit, anticoagulated with EDTAK2, the collecting time points were: before administration of the test substance (0 hr) and 15 min, 30 min, 1 h, 2 h, 4 h, 6 h, 8 h and 24 h after administration of the test substance. Blood samples were collected and placed on ice and the plasma was centrifuged and separated within 1 hour (centrifugal conditions: 5000 rpm, 10 minutes, 4° C.). The collected plasma was stored at −20° C. before analysis.
Data acquisition and control system software was the Analyst1.5.1 software (Applied Biosystem). The sample peak integral method was automatic integration; The ratio of the peak area of the sample and the peak area of the internal standard was taken as the index and the concentration of the sample was regressed. Regression method: linear regression, the weight coefficient was 1/X^2. Pharmacokinetic parameters were analyzed with a non-compartmental model using WinNonlin Professional v6.3 (Pharsight, USA). Cmax is the measured maximum blood concentration, and the area under the blood concentration-time curve AUC(0→t) was calculated from the trapezoidal method, and Tmax is the peak blood concentration time after administration. The experimental data is expressed as “mean±SD, n≥3” or “mean” (mean, n=2).

Hela cells = assay: Test for cell activity (Hela cells, interferon γ, kynurenine read at 480 nm); format: cell-based; conditions: human interferon γ 50 ng/mL, 48 h
Protocol: Hela cells (100 μL) were inoculated on a 96-well plate at an inoculation amount of 5×10^3 per well and grown overnight. The next day, after the compound was diluted, 1 μL was added to a 96-well plate and then 100 μL of medium containing human interferon y (final concentration of 50 ng/mL) was added to the 96-well plate to allow the final volume to be 200 μL. 48 h after incubating, 140 μL of supernatant in each well was transferred to a new 96-well plate. 10 μL of 6.1 N trichloroacetic acid was added to each well and mixed and incubated at 50° C. for 30 min, IDO catalyzed N-formyl canine urea to become canine urea. The reaction mixture was centrifuged at 2500 rpm for 10 minutes to remove the precipitate. 100 μL of supernatant in each well was transferred to a new 96-well plate and mixed with 100 μL of 2% dimethylaminobenzaldehyde acetic acid solution. After the canine urea was separated, the value was measured at 480 nm using a SPECTRAmax i3 reader.

[2] = Pharmacokinetics of compound 6 in rats (intragastric, intravenous); format: in vivo, SD rats; conditions: for Vd: read-out: Vss
Protocol: 6 SD rats, male, weight 180-200 g, intragastric or intravenous administration of compound 6 (Table 3):
For intragastric administration, the compound was formulated into a suspension with 1% MC, and for intravenous injection the compound was formulated with DMSO: 20% PEG400 (5:95). Fasting for 12 hours before the test, free drinking water. The rats were all fed 2 hours after administration.
Intragastric administration: 0.25, 0.5, 1.0, 2.0, 4.0, 6.0, 8.0 and 24 h after administration;
Intravenous administration: 5 min, 0.25, 0.5, 1.0, 2.0, 4.0, 6.0, 8.0 and 24 h after administration;
At the above set point, the venous blood was taken from the posterior venous plexus of the rat eyes, and placed in a EDTA-2K tube, centrifuged at 11000 rpm for 5 min, the plasma was separated and frozen in a −20° C. refrigerator.
The concentration of compound 6 in rat plasma was determined by LC/MS/MS.
Pharmacokinetic parameters after administration were calculated using the non-compartmental model of the WinNonlin 5.3 software (Pharsight, USA).
Peak concentration Cmax and peak time Tmax are measured value;
Drug area under the curve AUC0−t value: using trapezoidal method; AUC0−∞=AUC0−t+Ct/ke, Ct is the blood concentration at the last measurable time point, ke is the elimination rate constant;
Elimination half-life t1/2=0.693/ke;
Mean residence time MRT=AUMC/AUC.
Clearance rate CL=D/AUC0−∞;
Steady state distribution volume Vss=CL×MRT
Absolute Bioavailability F=(AUCintragastric×Dintravenous)/(AUCintravenous×Dintragastric)×100%

[3] = intragastric 10 mg/kg, individual rat
[4] = intravenous 1 mg/kg, individual rat
[5] = male, SD, rat, plasma, iv, 1 mg/kg, intravenous 1 mg/kg, individual rat
[6] = male, SD, rat, plasma, iv, 1 mg/kg, intravenous 1 mg/kg, mean
[7] = male, SD, rat, plasma, po, 10 mg/kg, intragastric 10 mg/kg, individual rat
[8] = male, SD, rat, plasma, po, 10 mg/kg, intragastric 10 mg/kg, mean

CS(=O)(CCNc1nonc1/C(=N/O)Nc1ccc(F)c(Br)c1)=NC#N (racemic) [compound 6, (±)(Z)—N-(3-bromo-4-fluorophenyl)-N′-hydroxy-4-((2-(thio-methylsulfoxidecyanoimine)ethyl)amino)-1,2,5-oxadiazole-3-carboxamidine]
pharmacokinetic parameters (overall judgement) ([1]; ICR mice, after oral compound 13): excellent pharmacokinetic parameters | AUMC0-inf ([1]; individual mouse): 46297 hr*hr*ng/mL and 13854 hr*hr*ng/mL and 21447 hr*hr*ng/mL | AUMC0-t ([1]; individual mouse): 19793 hr*hr*ng/mL and 12189 hr*hr*ng/mL and 16309 hr*hr*ng/mL | Kel ([1]; individual mouse): 0.0695 h⁻¹ and 0.156 h⁻¹ and 0.123 h⁻¹ | MRTPO ([1]; individual mouse): 15.0 h and 6.25 h and 7.99 h | AUMC0-inf ([1]; mean): 27199 hr*hr*ng/mL | AUMC0-t ([1]; mean): 16097 hr*hr*ng/mL | Kel ([1]; mean): 0.116 h⁻¹ | MRTPO ([1]; mean): 9.76 ± 4.64 h and 9.76 h | IC50 (Hela cells): 1.8 nM | AUC0-t [2, 3]: 2817 ng·h/mL and 2795 ng·h/mL | AUC0-∞ [2, 3]: 3007 ng·h/mL and 3008 ng·h/mL | Cmax [2, 3]: 854 ng/mL and 659 ng/mL | MRT [2, 3]: 3.27 h and 3.47 h | Tmax [2, 3]: 1.00 h | t1/2 [2, 3]: 1.80 h | AUC0-t ([2]; intragastric 10 mg/kg, mean): 2651 ng·h/mL | AUC0-t [2, 4]: 505 ng·h/mL and 547 ng·h/mL | AUC0-∞ [2, 4]: 534 ng·h/mL and 555 ng·h/mL | CL [2, 4]: 31.2 mL/min/kg and 30 mL/min/kg | MRT [2, 4]: 2.03 h and 1.67 h | Vss [2, 4]: 3.79 L/kg and 3.02 L/kg | t1/2 [2, 4]: 2.51 h and 1.32 h | AUC0-t ([2]; intravenous 1 mg/kg, mean): 533 ng·h/mL | CL ([2]; intravenous 1 mg/kg, mean): 30.3 mL/min/kg | AUC(0-inf) [2, 5]: 563 ng·h/mL | clearance [2, 5]: 29.7 mL/min/kg | half-life [2, 5]: 1.71 h | AUC0-t ([2]; male, SD, rat, plasma, iv, 1 mg/kg, intravenous 1 mg/kg, individual rat, read-out: AUC0-t): 546 ng·h/mL | MRT ([2]; male, SD, rat, plasma, iv, 1 mg/kg, intravenous 1 mg/kg, individual rat, read-out: MRT): 1.91 h | Vd [2, 5]: 3.39 L/kg | AUC(0-inf) [2, 6]: 551 ng·h/mL | clearance [2, 6]: 30.3 mL/min/kg | half-life [2, 6]: 1.85 h | AUC0-t ([2]; male, SD, rat, plasma, iv, 1 mg/kg, intravenous 1 mg/kg, mean, read-out: AUC0-t): 533 ng·h/mL | MRT ([2]; male, SD, rat, plasma, iv, 1 mg/kg, intravenous 1 mg/kg, mean, read-out: MRT): 1.87 h | Vd [2, 6]: 3.4 L/kg | bioavailability ([2]; male, SD, rat, plasma, oral, intragastric 10 mg/kg vs intravenous 1 mg/kg, dose normalized, read-out: F (absolute bioavailability)): 49.8% | AUC(0-inf) [2, 7]: 2480 ng·h/mL | half-life [2, 7]: 1.58 h | AUC0-t ([2]; male, SD, rat, plasma, po, 10 mg/kg, intragastric 10 mg/kg, individual rat, read-out: AUC0-t): 2340 ng·h/mL | Cmax ([2]; male, SD, rat, plasma, po, 10 mg/kg, intragastric 10 mg/kg, individual rat, read-out: Cmax): 593 ng/mL | MRT ([2]; male, SD, rat, plasma, po, 10 mg/kg, intragastric 10 mg/kg, individual rat, read-out: MRT): 3.35 h | Tmax ([2]; male, SD, rat, plasma, po, 10 mg/kg, intragastric 10 mg/kg, individual rat, read-out: Tmax): 2 h | AUC(0-inf) [2, 8]: 2830 ng·h/mL | half-life [2, 8]: 1.73 h | AUC0-t ([2]; male, SD, rat, plasma, po, 10 mg/kg, intragastric 10 mg/kg, mean, read-out: AUC0-t): 2650 ng·h/mL | Cmax ([2]; male, SD, rat, plasma, po, 10 mg/kg, intragastric 10 mg/kg, mean, read-out: Cmax): 702 ng/mL | MRT ([2]; male, SD, rat, plasma, po, 10 mg/kg, intragastric 10 mg/kg, mean, read-out: MRT): 3.36 h | Tmax ([2]; male, SD, rat, plasma, po, 10 mg/kg, intragastric 10 mg/kg, mean, read-out: Tmax): 1.33 h
